Reference: patent US10212956B2, “Compositions and methods of treating edible matter and substrates therefor” (PIMI AGRO CLEANTECH LTD., priority 2010, dated 2019)

How the values were obtained:
mandarin oranges = experiment: Citrus decay during storage at 2° C.; assay type: in vivo; conditions: Mandarin Orange
Experimental: Approximately 1000 mandarin oranges were treated shortly after harvest with compositions comprising performic acid, water, or an Imazalil composition, and then stored at 2° C. After 22 days, the number of rotten fruits, and the percent decay were assessed. A second trial was conducted with ten tons of mandarin oranges treated with a performic acid composition or Imazalil and stored and then stored at 2° C. The study was repeated with Red Grapefruit. The compositions comprising performic acid and the manner of applying the compositions varied throughout the course of the study within the parameters summarized in Table 6.
The compositions were applied to the citrus at room temperature with a fine spray of the performic acid containing composition and then treated either a) with a drain wash of water (either cold or heated to 55° C.) with a 1:9 dilution in tap water of the composition without formic acid, orb) with a drain wash of water (either cold or heated to 55° C.), followed by a fine spray at room temperature with a formulation identical to the performic acid formulation but without formic acid. Thus, the methods of applying in this study were: • a. Application of the performic acid containing composition at room temperature with fine spray, then treatment with a drain wash of cold water, and then a fine spray at room temperature with a formula without formic acid (i.e. without the performic acid source) • b. Application of the performic acid containing composition at room temperature with fine spray, then treatment with a drain wash of heated water (to about 55° C.), and then a fine spray at room temperature with a formula without formic acid • c. Application of the performic acid containing composition at room temperature with fine spray and then treatment with a drain wash of cold water that contained the formula at a diluted state at a ratio of 1:9 but without formic acid • d. Application of the performic acid containing composition at room temperature with fine spray and then treatment with a drain wash of heated water (to about 55° C.) that contained the formula at a diluted state at a ratio of 1:9 but without formic acid
All treatments were conducted at a total rate of 5-20 liter of formula per ton of different Citrus varieties.

[1] = tested on: Aspergillus niger (ATCC 16404); experiment: BS EN 1650:1998 quantitative suspension test, fungicidal activity; assay type: cell-based; conditions: 300 ppm; same test conditions (1 minute, 20° C., dirty conditions)
Experimental: (§1) This is a quantitative suspension test to evaluate the activity of chemical disinfectants and antiseptics used in food, industrial, domestic and institutional areas against fungi, yeasts and molds. The same composition tested in Example 22 was tested in this case as well.
(§2) As is known in the art, EN 1650 specifies a test method and the minimum requirements for anti-fungal, anti-yeast and anti-mold activity of chemical disinfectant and antiseptic products that form a homogeneous, physically stable preparation in hard water and that are used in food, industrial, domestic and institutional areas, excluding areas and situations where disinfection is medically indicated and excluding products used on living tissues except those for hand hygiene in the above-considered areas. […]
(§3) A test suspension of yeast cells and/or mold spores in a solution of interfering substance (bovine albumin, 3 g/l) was added to a prepared sample of the product under test diluted in hard water. […] (If a suitable neutralizer could be found, membrane filtration was used.) The number of surviving fungi, yeast cells or mold spores in each sample was determined and the reduction in viable counts was calculated. […]

[2] = tested on: Penecillium w.t. (wild type); experiment: as above; assay type: cell-based; conditions: 300 ppm; same test conditions (1 minute, 20° C., dirty conditions)
Experimental: as §1, §2, §3

SMILES	% Decay (mandarin oranges; 22 days after treatment)	No. Rotten Fruits (mandarin oranges; 22 days after treatment)	% Decay (mandarin oranges; 46 days after treatment)	No. Rotten Fruits (mandarin oranges; 46 days after treatment)	compliance with EN 1650 [1]	compliance with EN 1650 [2]
C=CCOC(Cn1ccnc1)c1ccc(Cl)cc1Cl (stereo not drawn) [Imazalil]	6.8%	59	1.75%	125	–	–
CC(=O)OO [peracetic acid]	–	–	–	–	did not meet the standard	did not meet the standard
